Test results published in patent US8466162B2, “5-alkynyl-pyridines” (Boehringer Ingelheim International GmbH, priority 2011, dated 2013).

Key:
PI3Kalpha = molecular target: T1, PI3Kalpha (Homo sapiens, UniProt P42336); assay: Inhibition of PI3Kalpha-induced PIP-2 phosphorylation (filter-binding assay, 33P-ATP); type: biochemical; conditions: PI3 Kinase alpha (p85alpha/His-p110alpha), 1 μM ATP; read-out: IC50 PI3Kα
T1 construct: His (N); made in house; host or cells: SF9 insect cells (baculovirus co-infection)
T1 sequence (P27986 whole entry): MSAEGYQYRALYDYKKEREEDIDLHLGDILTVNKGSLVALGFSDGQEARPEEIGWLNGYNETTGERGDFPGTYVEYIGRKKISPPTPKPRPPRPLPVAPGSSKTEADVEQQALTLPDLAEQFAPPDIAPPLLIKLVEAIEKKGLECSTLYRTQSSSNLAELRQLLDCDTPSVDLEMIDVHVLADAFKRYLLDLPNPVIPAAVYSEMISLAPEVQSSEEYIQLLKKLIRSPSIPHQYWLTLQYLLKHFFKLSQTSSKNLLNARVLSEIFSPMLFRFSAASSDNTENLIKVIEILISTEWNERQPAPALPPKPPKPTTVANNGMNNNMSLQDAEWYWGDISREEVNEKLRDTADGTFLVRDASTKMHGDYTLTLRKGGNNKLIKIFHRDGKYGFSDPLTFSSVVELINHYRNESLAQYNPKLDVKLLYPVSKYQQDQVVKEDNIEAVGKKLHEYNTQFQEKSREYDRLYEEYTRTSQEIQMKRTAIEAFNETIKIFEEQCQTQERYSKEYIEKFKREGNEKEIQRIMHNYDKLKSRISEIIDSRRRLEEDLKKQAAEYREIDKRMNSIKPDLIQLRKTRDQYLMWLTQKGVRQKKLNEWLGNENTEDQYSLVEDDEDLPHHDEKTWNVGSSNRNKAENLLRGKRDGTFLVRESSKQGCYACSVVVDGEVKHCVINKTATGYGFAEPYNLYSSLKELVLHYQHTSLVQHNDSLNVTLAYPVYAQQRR
T1 sequence (P42336 whole entry): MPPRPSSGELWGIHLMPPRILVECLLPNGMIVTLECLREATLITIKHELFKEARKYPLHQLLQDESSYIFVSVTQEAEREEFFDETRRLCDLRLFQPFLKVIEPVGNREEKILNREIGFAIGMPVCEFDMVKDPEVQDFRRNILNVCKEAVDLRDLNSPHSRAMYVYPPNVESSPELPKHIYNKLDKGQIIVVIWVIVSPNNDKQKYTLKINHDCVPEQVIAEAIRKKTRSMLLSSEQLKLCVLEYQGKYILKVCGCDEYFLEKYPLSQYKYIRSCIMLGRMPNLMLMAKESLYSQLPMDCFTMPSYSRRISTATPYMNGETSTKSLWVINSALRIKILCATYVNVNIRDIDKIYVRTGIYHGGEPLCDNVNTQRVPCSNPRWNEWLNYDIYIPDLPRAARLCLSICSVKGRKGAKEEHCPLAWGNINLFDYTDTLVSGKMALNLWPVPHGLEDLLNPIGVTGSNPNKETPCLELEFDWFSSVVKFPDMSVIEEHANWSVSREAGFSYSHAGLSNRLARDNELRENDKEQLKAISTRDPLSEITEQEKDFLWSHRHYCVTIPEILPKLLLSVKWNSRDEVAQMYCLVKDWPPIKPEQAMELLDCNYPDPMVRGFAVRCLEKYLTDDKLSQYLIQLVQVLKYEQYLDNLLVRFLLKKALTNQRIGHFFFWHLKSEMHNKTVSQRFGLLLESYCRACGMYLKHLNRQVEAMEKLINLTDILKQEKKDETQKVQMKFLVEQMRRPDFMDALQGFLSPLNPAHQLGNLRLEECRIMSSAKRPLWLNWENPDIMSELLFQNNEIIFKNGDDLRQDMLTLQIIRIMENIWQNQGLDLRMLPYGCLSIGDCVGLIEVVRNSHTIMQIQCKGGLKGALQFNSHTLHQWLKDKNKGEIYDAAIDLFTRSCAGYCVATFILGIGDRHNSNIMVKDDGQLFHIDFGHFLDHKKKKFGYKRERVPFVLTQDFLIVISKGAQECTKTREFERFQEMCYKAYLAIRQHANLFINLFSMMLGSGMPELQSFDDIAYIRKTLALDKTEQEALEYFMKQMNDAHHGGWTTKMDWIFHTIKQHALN
Protocol: Biological Methods Inhibition of PI3Kalpha-Induced PIP-2 Phosphorylation
See also J. A. Engelman, Nature Reviews Cancer, 2009, 9, 550-562; A. Carnero, Expert Opin. Investig. Drugs, 2009, 18, 1265-1277 and P. Liu et al., Nature Reviews Drug Discovery, 2009, 8, 627-64.
Method Type: Filter-Binding-Assay
Aliquoted in desired amounts and stored at −80° C. […] Assay Procedure
The substrate-containing lipid vesicles are dissolved to a concentration of 0.637 mg lipid blend/ml assay buffer (with BSA, freshly added) in 50 ml Falcon ->keep on ice, followed by ultrasonication (pulse of 15 sec followed by a pause of 10 sec, 4×). Compounds are serially diluted in assay buffer+6% DMSO and 10 μl of each dilution is added per well of a 96-well plate (compounds are tested in duplicates) and mixed with 30 μl of the lipid vesicles containing PDGFR-Peptide (0.5 μM final) and PI3K alpha (25 ng/well final). The mixture is then incubated for 20 minutes at room temperature.
Subsequently, 20 μl of assay buffer containing 3 μM cold ATP and 0.5 μCi/20 μl 33P-ATP are added. The plates are then incubated at room temperature for 120 minutes (shaking with 300 rpm).
The reaction mix is transferred onto filter plates using “filtermate harvester” from Packard: filter plates are rinsed with PBS, then the reaction mix is filtered onto the filter plate, washed 5 times with PBS and are allowed to dry for 30-60 minutes at 50° C. The plate bottom is sealed with Perkin Elmer white adhesive foil and 25 μl/well Microscint0 are added, the top is covered with transparent adhesive foil and the plate is measured with Wallac Trilux 1450 Microbeta Counter.
As positive control serve wells containing vehicle controls (1% DMSO in assay buffer), showing non-inhibited kinase activity (high values). Wells containing assay buffer instead of enzyme can serve as control for background activity (low values).
Calculate IC50 values using the Smiley program (based on GrapPad Prism)

H460 cells = assay: alamarBlue H460 cell assay (antiproliferative/cytotoxicity); type: cell-based; conditions: NCI-H460; H460 human lung carcinoma cells
Source text: (§1) The H460, MB453, U87, MCF7 and BT474 alamarBlue cell assays provide EC50 values indicative of the antiproliferative or cytotoxic effects of the compounds to respectively the H460 (human non small cell line cancer), MB-453 (breast cancer cell line), U87 (glioblastoma cell line), MCF7 (breast cancer cell line) and BT474 (breast cancer cell line). As known in the field, antiproliferative or cytotoxic effect against this cell lines would be expected to be indicative of activity in treating lung, breast and brain cancers. See R. Marone R et al. Biochim. Biophys. Acta. 2008 January; 1784(1):159-85. S. Yaguchi et al., J. Natl. Cancer Inst. 2006 Apr. 19; 98(8):545-56.
(§2) Method Type: Antiproliferative/Cytotoxicity
(§3) alamarBlue® is designed to provide a rapid and sensitive measure of cell proliferation and cytotoxicity in various human and animal cell lines. The assay is based on the reduction of alamarBlue in the reducing environment of living (metabolically active) cells. In the presence of added cytotoxic or antiproliferative compounds, the innate metabolic activity ceases.
(§4) AlamarBlue is soluble and stable in culture medium. Measurements are made fluorometrically by exciting at 530-560 nm and measuring emission at 590 nm. In reporting percent alamarBlue reduction by monitoring fluorescence, data are expressed as fluorescence emission intensity units as a function of time of incubation.
(§5) 3. Equipment • 96-well plates, flat bottom (Falcon, Cat. No.: 353072) • 96-well plates, U-shaped (Costar, Cat. No.: 3799) • CO2-Incubator • Microplate Reader, Spectramax Plus, Molecular Devices 4. Typical Procedure • Day 0: Seed 3000 BT-474 cells (IMDM/5% FCS, 1% NEAA, 1% Sodiumpyruvat) in 150 μl medium into a 96-well plate, flat bottom (include mediumblank). Incubate plates at 37° C. in a CO2 incubator overnight. • Day 1: Dilute compounds to a concentration 40 μM ->1:3 in medium, 10 dilution steps, in 96-well plates. • Add 50 μl per well of each dilution (total volume per well 200 μl; final conc. of cpds: 10 μM ->1:3). If required, test further dilutions. • All concentrations are tested in duplicates. • Controls: Cells w/o cpd. (+50 μl medium/DMSO). • Cells are incubated with compounds for 5-6 days. • Day 6 or 7: Add 25 μl of alamarBlue solution to each well and incubate for 8 hours at 37° C. Measure fluorescence by exciting at 530-560 nm and measuring emission at 590 nm 5. Evaluation • Subtract average value for medium blank from sample readings • Calculate EC50 using GraphPad Prism (Fifty)

MCF7 cells = assay: alamarBlue MCF7 cell assay (antiproliferative/cytotoxicity); type: cell-based; conditions: MCF7 human breast cancer cell line
Source text: as §1, §2, §3, §4, §5

BT474 cells = assay: alamarBlue BT474 cell assay (antiproliferative/cytotoxicity); type: cell-based; conditions: BT-474 human breast cancer cell line, 5-6 days incubation
Source text: as §1, §2, §3, §4, §5

MB453 cells = assay: alamarBlue MB453 cell assay (antiproliferative/cytotoxicity); type: cell-based; conditions: Homo sapiens; MDA MB 453 breast cancer cell line
Source text: as §1, §2, §3, §4, §5

U87 cells = assay: alamarBlue U87 cell assay (antiproliferative/cytotoxicity); type: cell-based; conditions: U-87MG human glioblastoma cells
Source text: as §1, §2, §3, §4, §5

SMILES	IC50 (PI3Kalpha) [nM]	EC50 (H460 cells) [nM]	EC50 (MCF7 cells) [nM]	EC50 (BT474 cells) [nM]	EC50 (MB453 cells) [nM]	EC50 (U87 cells) [nM]
COc1ncc(C#Cc2c(C)nc(N)nc2-c2ccnc(C)c2)cc1NS(C)(=O)=O [Example 21, N-{5-[2-Amino-4-methyl-6-(2-methyl-pyridin-4-yl)-pyrimidin-5-ylethynyl]-2-methoxy-pyridin-3-yl}-methanesulfonamide]	2	87	22	295		
COc1ncc(C#Cc2c(C)nc(N)nc2-c2ccnc(C)c2)cc1NS(=O)(=O)c1ccc(F)cc1F [Example 22, N-{5-[2-Amino-4-methyl-6-(2-methyl-pyridin-4-yl)-pyrimidin-5-ylethynyl]-2-methoxy-pyridin-3-yl}-2,4-difluoro-benzenesulfonamide]	0.36	13	3	29		
CNC(=O)c1ccc(-c2nc(N)nc(C)c2C#Cc2cnc(C)c(NS(C)(=O)=O)c2)cc1Cl [Example 25, 4-[2-Amino-5-(5-methanesulfonylamino-6-methyl-pyridin-3-ylethynyl)-6-methyl-pyrimidin-4-yl]-2-chloro-N-methyl-benzamide]	3	376	122	231		
CNC(=O)c1ccc(-c2nc(N)nc(C)c2C#Cc2cnc(Cl)c(NS(C)(=O)=O)c2)cc1Cl [Example 26, 4-[2-Amino-5-(6-chloro-5-methanesulfonylamino-pyridin-3-ylethynyl)-6-methyl-pyrimidin-4-yl]-2-chloro-N-methyl-benzamide]	0.83	151	17	53		
CCc1ncnc(-c2cccc(CN(C)C)c2)c1C#Cc1cnc(C)c(NS(=O)(=O)c2ccc(F)cc2F)c1 [Example 30, N-{5-[4-(3-Dimethylaminomethyl-phenyl)-6-ethyl-pyrimidin-5-ylethynyl]-2-methyl-pyridin-3-yl}-2,4-difluoro-benzenesulfonamide]	2	347	77	108	188	
CCc1nc(N)nc(-c2cccc(C#N)c2)c1C#Cc1cnc(C)c(NS(=O)(=O)c2ccc(F)cc2F)c1 [Example 34, N-{5-[2-Amino-4-(3-cyano-phenyl)-6-ethyl-pyrimidin-5-ylethynyl]-2-methyl-pyridin-3-yl}-2,4-difluoro-benzenesulfonamide]	0.9	147	17	107	174	
CCc1ncnc(-c2ccc(C(=O)N3CCN(C)CC3)c(F)c2)c1C#Cc1cnc(C)c(NS(C)(=O)=O)c1 [Example 81, N-(5-{4-Ethyl-6-[3-fluoro-4-(4-methyl-piperazine-1-carbonyl)-phenyl]-pyrimidin-5-ylethynyl}-2-methyl-pyridin-3-yl)-methanesulfonamide]	3	2350	301	477		
CCc1nc(N)nc(-c2ccc(C(=O)N3CCN(C)CC3)c(F)c2)c1C#Cc1cnc(C)c(NS(C)(=O)=O)c1 [Example 82, N-(5-{2-Amino-4-ethyl-6-[3-fluoro-4-(4-methyl-piperazine-1-carbonyl)-phenyl]-pyrimidin-5-ylethynyl}-2-methyl-pyridin-3-yl)-methanesulfonamide]	1	2270	194	511		

Continued, in another order:

IC50 (PI3Kalpha) [nM]	SMILES	EC50 (H460 cells) [nM]	EC50 (MCF7 cells) [nM]	EC50 (BT474 cells) [nM]	EC50 (MB453 cells) [nM]	EC50 (U87 cells) [nM]
0.92	CCc1ncnc(-c2cccc(C#N)c2)c1C#Cc1cnc(C)c(NS(=O)(=O)c2ccc(F)cc2F)c1 [Example 29, N-{5-[4-(3-Cyano-phenyl)-6-ethyl-pyrimidin-5-ylethynyl]-2-methyl-pyridin-3-yl}-2,4-difluoro-benzenesulfonamide]	255	83	282	258	
0.71	CCc1ncnc(-c2ccnc(C)c2)c1C#Cc1cnc(C)c(NS(=O)(=O)c2ccccc2OC)c1 [Example 96, N-{5-[4-Ethyl-6-(2-methyl-pyridin-4-yl)-pyrimidin-5-ylethynyl]-2-methyl-pyridin-3-yl}-2-methoxy-benzenesulfonamide]	93		84	102	225
2	CCc1ncnc(-c2ccnc(C)c2)c1C#Cc1cnc(C)c(NS(=O)(=O)c2ccc(OC)cc2OC)c1 [Example 98, N-{5-[4-Ethyl-6-(2-methyl-pyridin-4-yl)-pyrimidin-5-ylethynyl]-2-methyl-pyridin-3-yl}-2,4-dimethoxy-benzenesulfonamide]	288		225	437	559
11	CCc1ncnc(-c2ccnc(C)c2)c1C#Cc1cnc(C)c(NS(=O)(=O)c2ccc(C(C)(C)C)cc2)c1 [Example 99, 4-tert-Butyl-N-{5-[4-ethyl-6-(2-methyl-pyridin-4-yl)-pyrimidin-5-ylethynyl]-2-methyl-pyridin-3-yl}-benzenesulfonamide]	2490		4970	2930	2420
5	CCc1ccc(S(=O)(=O)Nc2cc(C#Cc3c(CC)ncnc3-c3ccnc(C)c3)cnc2C)cc1 [Example 100, 4-Ethyl-N-{5-[4-ethyl-6-(2-methyl-pyridin-4-yl)-pyrimidin-5-ylethynyl]-2-methyl-pyridin-3-yl}-benzenesulfonamide]	558		733	746	819
0.65	CCc1ncnc(-c2ccnc(C)c2)c1C#Cc1cnc(C)c(NS(=O)(=O)c2cc(Cl)ccc2OC)c1 [Example 101, 5-Chloro-N-{5-[4-ethyl-6-(2-methyl-pyridin-4-yl)-pyrimidin-5-ylethynyl]-2-methyl-pyridin-3-yl}-2-methoxy-benzenesulfonamide]	82		102	89	259
1	CCc1ncnc(-c2ccnc(C)c2)c1C#Cc1cnc(C)c(NS(=O)(=O)c2cc(C)ccc2OC)c1 [Example 102, N-{5-[4-Ethyl-6-(2-methyl-pyridin-4-yl)-pyrimidin-5-ylethynyl]-2-methyl-pyridin-3-yl}-2-methoxy-5-methyl-benzenesulfonamide]	104		149	146	319
0.32	CCc1ncnc(-c2ccnc(C)c2)c1C#Cc1cnc(C)c(NS(=O)(=O)c2c(F)cccc2F)c1 [Example 103, N-{5-[4-Ethyl-6-(2-methyl-pyridin-4-yl)-pyrimidin-5-ylethynyl]-2-methyl-pyridin-3-yl}-2,6-difluoro-benzenesulfonamide]	185		53	59	161
